As a reminder, the MIC is the lowest concentration found to suppress growth.

Converted amounts (≈) assume the structure as drawn. Where two headings read alike, the source gives them in different places.

Assay [1] has as its system E. faecalis ATCC29212. The assay can be described thus: MIC determination by microplate dilution, E. faecalis human strain. The format is cell-based, Enterococcus faecalis. To be noted: Enterococcus faecalis, ATCC29212, Gram-positive, Mueller-Hinton medium, 24 h, 37° C. The gist of the method:
(§1)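 Strains precultured in Mueller-Hinton broth 24 h at 37 °C; compounds from 5 mg/mL stocks in DMSO/methanol 50/50, twofold serial dilution in 96-well plates, inoculum set to OD 0.01. Incubated 24 h at 37 °C, humid; OD read at 620 nm to derive MIC, duplicates.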

The test system of assay [2] is C. albicans. The assay can be described thus: Antifungal activity, cascade microdilution, C. albicans. Particulars: Candida albicans, 24 h, read-out: IC50 (μg/mL) C. albicans. The format is cell-based, Candida albicans. For orientation: Dilution methods test growth across graded concentrations, often in twofold steps.
The test system of assay [3] is P. aeruginosa (1051575). The assay is described as follows: Potentiation of the doxycycline activity at 2 μg/mL. Particulars: for MIC - P. aeruginosa (1051575): content of compound of formula (I) to restore the doxycycline activity (at 2 μg/mL): in combination with doxycycline 2 μg/mL, 24 h, 37°. It counts as cell-based, Pseudomonas aeruginosa.
Assay [4] relates to S. aureus (340). The assay can be described thus: MIC determination by microplate dilution, S. aureus animal strain. The format is cell-based, Staphylococcus aureus. Particulars: Staphylococcus aureus, Gram-positive, Mueller-Hinton medium, 24 h, 37° C. In a few lines: as §1
Assay [5] concerns S. intermedius (1051997). The assay is described as follows: MIC determination by microplate dilution, S. intermedius animal strain. The format is cell-based, Staphylococcus intermedius. To be noted: Staphylococcus intermedius, Gram-positive, Mueller-Hinton medium, 24 h, 37° C. The gist of the method:
as §1

Assay [6] has as its system P. aeruginosa (1051575). The assay is described as follows: Potentiation of erythromycin activity. The format is cell-based, Pseudomonas aeruginosa. Particulars: concentration of compound required with erythromycin 2 μg/mL. The method, then:
(§2) This method requires the use of a 96-well plate: 100 μL of a liquid culture medium are placed in each well and then seeded with the microbial suspension prepared previously. The required volume to be seeded is calculated for an OD of 0.01, which corresponds to about 5×10^6 bacteria in each well. In this plate, the first line corresponds to a negative control (200 μL of sterile culture medium in each well), the second line corresponds to a positive control (100 μL of sterile culture medium+100 μL of the bacterial suspension), and the third line contains 192 μL of culture medium; 8 μL of compound of formula (I) to be tested are placed in each well. Thereafter, a cascade dilution is performed from this line. μL of a doxycycline solution (1 mg dissolved in 20 mL) are then added to each well of the lines 3 to 8 to obtain a final antibiotic concentration of 2 μg/mL. 92 μL of bacterial suspension are then added to lines 3 to 8. […] After 24 hours of incubation at 37° C., 40 μL of nitro tetrazolium iodide are added to each well to reveal the presence of live bacteria by staining the medium pink.
The procedure is identical to that indicated in Example 5 above. 8 μL of an antibiotic solution under consideration (1 mg dissolved in 20 mL) are added to obtain a final antibiotic concentration of 2 μg/mL instead of 8 μL of a doxycycline solution.
(§3) The results are given in table V. They indicate the concentration of compound of formula (I) required to be able to restore the activity of the antibiotic under consideration.

For assay [7], the system named is P. aeruginosa (1051575). The assay can be described thus: MIC determination by microplate dilution, P. aeruginosa animal strain. It counts as cell-based, Pseudomonas aeruginosa. To be noted: Pseudomonas aeruginosa, Gram-negative, Mueller-Hinton medium, 24 h, 37° C. The gist of the method:
as §1

In assay [8] the test system is P. aeruginosa (1051575). The assay can be described thus: Potentiation of ampicillin activity. The format is cell-based, Pseudomonas aeruginosa. Particulars: concentration of compound required with ampicillin 4 μg/mL. The method, then: as §2, with “Thereafter, a cascade dilution is performed from this line. μL of a doxycycline solution (1 mg dissolved in 20 mL) are then added to each well of the lines 3 to 8 to obtain a final antibiotic concentration of 2 μg/mL.” left out
(§4) The procedure is identical to that indicated in Example 5 above. […]
as §3

Assay [9] relates to E. coli ATCC28922. The assay is described as follows: MIC determination by microplate dilution, E. coli human strain. To be noted: Escherichia coli, ATCC28922, Gram-negative, Mueller-Hinton medium, 24 h, 37° C. The format is cell-based, Escherichia coli. In a few lines:
as §1

For assay [10], the system named is S. aureus ATCC25923. The assay is described as follows: MIC determination by microplate dilution, S. aureus human strain. Particulars: Staphylococcus aureus, ATCC25923, Gram-positive, Mueller-Hinton medium, 24 h, 37° C. It counts as cell-based, Staphylococcus aureus. The gist of the method: as §1
The test system of assay [11] is P. aeruginosa (1051575). The assay is described as follows: Potentiation of chloramphenicol activity. Particulars: concentration of compound required with chloramphenicol 4 μg/mL. The format is cell-based, Pseudomonas aeruginosa. The method, then:
as §2, with “Thereafter, a cascade dilution is performed from this line. μL of a doxycycline solution (1 mg dissolved in 20 mL) are then added to each well of the lines 3 to 8 to obtain a final antibiotic concentration of 2 μg/mL.” left out
as §4, §3

Assay [12] has as its system CHO-K1 cells. The assay can be described thus: WST1 cytotoxicity test on CHO-K1 cells. It counts as cell-based, Chinese hamster. Particulars: Cricetulus griseus. In a few lines:
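CHO-K1 cells seeded 24 h, then exposed to increasing compound concentrations in duplicate for 24 h at 37 °C, 5% CO2. Viability by WST-1 reduction (20 min, 37 °C), absorbance at 450 nm. IC50 = concentration reducing viability by 50%, from nonlinear regression of dose-response.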

Assay [13] has as its system E. coli (1956). The assay is described as follows: MIC determination by microplate dilution, E. coli animal strain. The format is cell-based, Escherichia coli. Particulars: Escherichia coli, Gram-negative, Mueller-Hinton medium, 24 h, 37° C. The gist of the method:
as §1

Assay [14] relates to P. aeruginosa ATCC27853. The assay is described as follows: MIC determination by microplate dilution, P. aeruginosa human strain. The format is cell-based, Pseudomonas aeruginosa. To be noted: Pseudomonas aeruginosa, ATCC27853, Gram-negative, Mueller-Hinton medium, 24 h, 37° C. In a few lines: as §1
In assay [15] the test system is A. niger. The assay is described as follows: Antifungal activity, cascade microdilution, A. niger. The format is cell-based. To be noted: Aspergillus niger, 24 h, read-out: IC50 (μg/mL) A. niger. The method, then:
1) Preparation of the Preculture
A negative control (2 mL of sterile Mueller Hinton MH culture medium)
A positive control (1980 μL of culture medium+20 μL of yeast or fungal suspension) from a thawed biological strain (the biological strains are stored at −80° C. in glycerol).
The tubes were incubated at 37° C. for 24 hours at 100 rpm.
The chemical compounds to be tested were prepared at a concentration of 5 mg/mL (in the form of the hydrochloride in water).
2) Preparation of the Microplate for the Determination of the Minimum Inhibitory Concentration (MIC)
The MIC is obtained by using the cascade microdilution method in sterile 96-well plates. 100 μL of MH culture medium are first placed in each well, and 8 μL of the solution (5 mg/mL) of the test molecule are then added to the first wells. The volume is made up with medium to obtain a total volume of 200 μL in these wells. Serial dilution is then performed by taking 100 μL from the first well, and so on successively from well to well. 100 μL of inoculate containing 2-6×10^5 CFU of yeast or fungi are then added to each well. Certain wells are reserved for positive and negative controls.
3) Reading of the Results
After incubation, an optical density (OD) reading was taken in an iEMS plate spectrophotometer at 620 nm. Calculation of the minimum inhibitory concentration (MIC) was performed.

Assay [16] concerns P. aeruginosa (PAO1). The assay can be described thus: MIC of doxycycline on P. aeruginosa PAO1. The format is cell-based. Particulars: Pseudomonas aeruginosa; doxycycline alone; Gram-negative strain P. aeruginosa (PAO1). The method, then:
On the Gram-negative strain of P. aeruginosa (PAO1), doxycycline has an MIC of 40 μg/mL.

Setting [17] is: CHO-K1, 24 h, read-out: IC50 (μg/mL) CHO.
Where [18] appears, read: CHO-K1, read-out: IC50 (μg/mL) CHO.

Take `CC(C)OC(=O)CC[C@@H](C)[C@H]1CCC2C3C(CC[C@@]21C)[C@@]1(C)CC[C@H](NCCCNCCCN)CC1C[C@H]3O` (stereo partly drawn) [(11), isopropyl 3β-norspermidinochenodeoxycholate]: the MIC in [1] is 3.5 µg/mL (≈ 6.39 µM); in assay [4] it was 2 µg/mL (≈ 3.65 µM); in [5], 2 µg/mL (≈ 3.65 µM); in assay [7], 14 µg/mL (≈ 25.6 µM); in [9], 14 µg/mL (≈ 25.6 µM); in [10], 7 µg/mL (≈ 12.8 µM). For the same compound, the results for the IC50 in [2], in assay [12] (setting [17]) and in [12] (setting [18]) were 4 µg/mL (≈ 7.3 µM), 140 µg/mL (≈ 256 µM) and 140 µg/mL (≈ 256 µM), respectively. Moreover, the synergism with doxycycline result in [3] (administered with doxycycline at 2 μg/mL) is reported as “noteworthy synergism”. Further, in assay [3], the “MIC - P. aeruginosa (1051575): content of compound of formula (I) to restore the doxycycline activity (at 2 μg/mL)” value (“MIC - P. aeruginosa (1051575): content” for short) is 1 µg/mL. Also, the “MIC P. aeruginosa (1051575), compound + erythromycin” value in assay [6] is 28 µg/mL. Also, in [8], the “MIC P. aeruginosa (1051575), compound + ampicillin” value was 56 µg/mL. In assay [11], the “MIC P. aeruginosa (1051575), compound + chloramphenicol” value was found to be 2 µg/mL.
For the compound `COC(=O)CC[C@@H](C)[C@H]1CCC2C3C(CC[C@@]21C)[C@@]1(C)CC[C@H](NCCCN(CCCN)CCCN)CC1C[C@H]3O` (stereo partly drawn) [(38), methyl 3β-(tris(3-aminopropyl)amine)chenodeoxycholate], the minimum inhibitory concentration (MIC) in assay [1] stood at 3.5 µg/mL (≈ 6.07 µM); in assay [4], 14 µg/mL (≈ 24.3 µM); in [5], 29 µg/mL (≈ 50.3 µM); in [7], 14 µg/mL (≈ 24.3 µM); in assay [13], 14 µg/mL (≈ 24.3 µM); in [9] it was 28 µg/mL (≈ 48.5 µM). The MIC turned out to be 28 µg/mL (≈ 48.5 µM) in assay [14] and 14 µg/mL (≈ 24.3 µM) in assay [10]. Further, the IC50 in assay [2] is 115 µg/mL (≈ 199 µM); in assay [15], 4 µg/mL (≈ 6.93 µM); in [12] (setting [17]), 17 µg/mL (≈ 29.5 µM); in assay [12] (setting [18]), 17 µg/mL (≈ 29.5 µM). For the same compound, the “MIC - P. aeruginosa (1051575): content” value in assay [3] came out at 2 µg/mL.
Regarding `CC(C)OC(=O)CC[C@@H](C)[C@H]1CCC2C3C(CC[C@@]21C)[C@@]1(C)CC[C@H](NCCN(CCN)CCN)CC1C[C@H]3O` (stereo partly drawn) [(40), isopropyl 3β-(tris(2-aminoethyl)amine)chenodeoxycholate], the MIC in [1] came out at 14 µg/mL (≈ 24.9 µM); in [4], 14 µg/mL (≈ 24.9 µM); in [5] it was 7 µg/mL (≈ 12.4 µM); in assay [13], 28 µg/mL (≈ 49.7 µM); in assay [9], 14 µg/mL (≈ 24.9 µM); in [14], 56 µg/mL (≈ 99.5 µM). Moreover, in [10], the minimal inhibitory concentration (MIC) stood at 14 µg/mL (≈ 24.9 µM). The IC50 in assay [2] stood at 7 µg/mL (≈ 12.4 µM); in assay [12] (setting [18]), 140 µg/mL (≈ 249 µM). The “MIC - P. aeruginosa (1051575): content” value in assay [3] was 4 µg/mL. In addition, in [6], the “MIC P. aeruginosa (1051575), compound + erythromycin” value came to 56 µg/mL. The “MIC P. aeruginosa (1051575), compound + ampicillin” value in [8] worked out at 28 µg/mL. Also, the “MIC P. aeruginosa (1051575), compound + chloramphenicol” value in [11] came to 4 µg/mL.
With `CC(C)OC(=O)CC[C@@H](C)[C@H]1CCC2C3C(CC[C@@]21C)[C@@]1(C)CC[C@H](NCCCNCCCNCCCN)CC1C[C@H]3O` (stereo partly drawn) [Compound (10), isopropyl 3β-norsperminochenodeoxycholate], the MIC was 8 µg/mL (≈ 13.2 µM) in assay [1]; 2 µg/mL (≈ 3.31 µM) in assay [4]; 0.8 µg/mL (≈ 1.32 µM) in assay [5]; 4 µg/mL (≈ 6.61 µM) in [7]; 10 µg/mL (≈ 16.5 µM) in assay [13]; 16 µg/mL (≈ 26.4 µM) in [9]. Also, the minimal inhibitory concentration (MIC) in assay [10] amounted to 4 µg/mL (≈ 6.61 µM). Also, the IC50 in assay [2] turned out to be 2 µg/mL (≈ 3.31 µM); in assay [15] it was 4 µg/mL (≈ 6.61 µM); in [12] (setting [17]) it was 85 µg/mL (≈ 141 µM); in assay [12] (setting [18]), 85 µg/mL (≈ 141 µM). The “MIC - P. aeruginosa (1051575): content” value in assay [3] was determined as 2 µg/mL.
For `C[C@H]1c2cccc(O)c2C(=O)C2=C(O)[C@]3(O)C(=O)C(C(N)=O)=C(O)[C@@H](N(C)C)[C@@H]3[C@@H](O)[C@@H]21` [doxycycline], the MIC in [16] worked out at 40 µg/mL.

Values taken from US20190255073A1, “ESTERS OF 3-POLYAMINE DERIVATIVES OF BILE ACIDS FOR THE TREATMENT OF INFECTIONS” (VIRBAC, priority 2016, published 2019).
